One compound from publication PMC8347595, “N-Skatyltryptamines—Dual 5-HT6R/D2R Ligands with Antipsychotic and Procognitive Potential” (Molecules, 2021) can be followed below.

The nature of this series: in vitro. Particulars: PAMPA, pH 7.4. In general terms: The PAMPA barrier holds no transporters, so it reflects passive diffusion.

What is called Papp is the rate of passage across a membrane or cell layer, normalised by area and donor concentration. Read a high Papp as fast passage. Consider `Brc1ccc2c(CNCCc3c[nH]c4ccccc34)c[nH]c2c1` [Compound 15], for which the Papp at 5 h, 200 µM was 2.42 ± 0.92 ×10⁻⁶ cm/s.
